Reference: patent publication US6462069B2, “Compounds, pharmaceutical compositions, and methods for inhibiting protein kinases” (Agouron Pharmaceuticals, Inc., priority 2000, dated 2002)
pKi: −log10 of the molar value.

Tests used:
Assay type in all cases: biochemical
[1] = target: T1, VEGF-R2 (VEGF-R2Δ50 construct) (Homo sapiens, UniProt P35968, DEL940-989/E990V); assay: VEGF-R2 assay; settings: read-out: Percent Inhibition VEGF
T1 construct: VEGF-R2Δ50 contains residues 806-939 and 990-1171; made in house; host or cells: baculovirus/insect cell system
T1 sequence (P35968 with tags, fused parts or gaps DEL940-989/E990V limits assumed): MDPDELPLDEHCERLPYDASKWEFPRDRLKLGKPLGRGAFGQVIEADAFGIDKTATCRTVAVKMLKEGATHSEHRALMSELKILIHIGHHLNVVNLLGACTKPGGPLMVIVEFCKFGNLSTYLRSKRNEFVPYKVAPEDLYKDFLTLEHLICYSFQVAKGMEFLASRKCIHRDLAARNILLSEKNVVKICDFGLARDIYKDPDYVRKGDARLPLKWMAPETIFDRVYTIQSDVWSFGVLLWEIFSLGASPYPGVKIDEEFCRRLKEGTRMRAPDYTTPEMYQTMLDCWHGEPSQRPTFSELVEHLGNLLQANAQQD
Text: This construct determines the ability of a test compound to inhibit tyrosine kinase activity. A construct (VEGF-R2Δ50) of the cytosolic domain of human vascular endothelial growth factor receptor 2 (VEGF-R2) lacking the 50 central residues of the 68 residues of the kinase insert domain was expressed in a baculovirus/insect cell system. This construct is described by McTigue et al. in Structure, vol. 7, pp. 319-330 (1999) and co-pending U.S. patent application Ser. No. 09/390,326, filed Sep. 7, 1999. Of the 1356 residues of full-length VEGF-R2, VEGF-R2Δ50 contains residues 806-939 and 990-1171, and also one point mutation (E990V) within the kinase insert domain relative to wild-type VEGF-R2. […]
The production of ADP from ATP that accompanies phosphoryl transfer was coupled to oxidation of NADH using phosphoenolpyruvate (PEP) and a system having pyruvate kinase (PK) and lactic dehydrogenase (LDH). The oxidation of NADH was monitored by following the decrease of absorbance at 340 nm (e340=6.22 cm^−1 mM^−1) using a Beckman DU 650 spectrophotometer. […] Ki values were determined by measuring enzyme activity in the presence of varying concentrations of test compounds. The data were analyzed using Enzyme Kinetic and Kaleidagraph software.
Formation of phosphogastrin was monitored using biotinylated gastrin peptide (1-17) as substrate. […]

CDK2/cyclin A complex = target: T2, CDK2/cyclin A complex (Homo sapiens, UniProt P24941); assay: Inhibition of CDK2/Cyclin A retinoblastoma kinase activity; settings: apparent Ki
T2 construct: made in house; host or cells: CDK2: insect cells (baculovirus); cyclin A: E. coli
Method: (§1) Cyclin-dependent kinase activity was measured by quantifying the enzyme-catalyzed, time-dependent incorporation of radioactive phosphate from [^32P]ATP or [^33P]ATP into a protein substrate. Unless noted otherwise, assays were performed in 96-well plates in a total volume of 50 μL, in the presence of 10 mM HEPES (N-[2-hydroxyethyl]piperazine-N′-[2-ethanesulfonic acid]) (pH 7.4). 10 mM MgCI2, 25 μM adenosine triphosphate (ATP), 1 mg/mL ovalbumin, 5 μg/mL leupeptin, 1 mM dithiothreitol, 10 mM beta-glycerophosphate, 0.1 mM sodium vanadate, 1 mM sodium fluoride, 2.5 mM ethylene glycol-bis(β-aminoethyl ethKer)-N,N,N′N′-tetraacetic acid (EGTA), 2% (v/v) dimethylsulfoxide, and 0.03-0.4 μCi [^32/33P]ATP per reaction. Reactions were initiated with enzyme, incubated at 30° C. and terminated after 20 minutes by the addition ofethylenediaminetetraacetic acid (EDTA) to 250 mM. The phosphorylated substrate was then captured on a nitrocellulose or phosphocellulose membrane using a 96-well filtration manifold, and unincorporated radioactivity was removed by repeated washing with 0.85% phosphoric acid. Radioactivity was quantified by exposing the dried membranes to a phosphorimager.
(§2) Apparent Ki values were measured by assaying enzyme activity in the presence of different inhibitor compound concentrations and subtracting the background radioactivity measured in the absence of enzyme. Inhibition data were fit to an equation for competitive inhibition using Kaleidagraph (Synergy Software), or were fit to an equation for competitive tight-binding inhibition using the software KineTic (BioKin, Ltd.).
CDK2 was purified using published methodology (Rosenblatt et al., “Purification and Crystallization of Human Cyclin-dependent Kinase 2,” J. Mol. Biol., vol. 230, pp. 1317-1319 (1993)) from insect cells that had been infected with a baculovirus expression vector. […] Ki values were measured as described above.

CDK4/cyclin D3 complex = target: T3, CDK4/cyclin D3 complex (Homo sapiens, UniProt P11802); assay: Inhibition of CDK4/Cyclin D retinoblastoma kinase activity; settings: apparent Ki
T3 construct: made in house; host or cells: insect cells co-infected with baculovirus expression vectors
T3 sequence (P11802 whole entry): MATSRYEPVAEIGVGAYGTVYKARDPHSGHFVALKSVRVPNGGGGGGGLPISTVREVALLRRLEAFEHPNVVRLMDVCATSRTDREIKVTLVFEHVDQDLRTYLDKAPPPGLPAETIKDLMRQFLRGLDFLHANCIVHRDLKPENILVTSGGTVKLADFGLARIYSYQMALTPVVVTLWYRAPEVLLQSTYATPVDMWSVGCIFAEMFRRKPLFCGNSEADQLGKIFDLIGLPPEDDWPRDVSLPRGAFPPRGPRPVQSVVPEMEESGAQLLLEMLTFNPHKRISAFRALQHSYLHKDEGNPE
T3 sequence (P30281 whole entry partner): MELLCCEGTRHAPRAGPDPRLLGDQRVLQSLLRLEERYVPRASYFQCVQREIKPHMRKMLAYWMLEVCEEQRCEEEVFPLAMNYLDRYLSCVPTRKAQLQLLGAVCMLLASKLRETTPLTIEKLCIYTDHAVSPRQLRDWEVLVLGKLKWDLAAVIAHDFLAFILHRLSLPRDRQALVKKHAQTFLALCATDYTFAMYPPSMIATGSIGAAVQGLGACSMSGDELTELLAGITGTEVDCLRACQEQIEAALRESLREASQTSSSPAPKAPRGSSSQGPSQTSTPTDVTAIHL
Method: as §1, §2
A complex of human CDK4 and cyclin D3, or a complex of human CDK4 and genetically truncated (1-264) cyclin D3, was purified using traditional biochemical chromatographic techniques from insect cells that had been co-infected with the corresponding baculovirus expression vectors ((see e.g., Meijer and Kim, “Chemical Inhibitors of Cyclin-Dependent Kinases,” Methods in Enzymol,. vol. 283, pp. 113-128 (1997)). The enzyme complex (5 or 50 nM) was assayed with 0.3-0.5 μg of purified recombinant retinoblastoma protein fragment (Rb) as a substrate. The engineered Rb fragment (residues 386-928 of the native retinoblastoma protein; 62.3 kDa) contains the majority of the phosphorylation sites found in the native 106-kDa protein, as well as a tag of six histidine residues for ease of purification. Phosphorylated Rb substrate was captured by microfiltration on a nitrocellulose membrane and quantified using a phosphorimager as described above. For measurement of tight-binding inhibitors, the enzyme complex concentration was lowered to 5 nM, and the assay duration was extended to 60 minutes, during which the time-dependence of product formation was linear.

SMILES | inhibition at 5 µM [1] | pKi (CDK2/cyclin A complex) | pKi (CDK4/cyclin D3 complex)
c1ccc(Nc2cc(-c3cccs3)[nH]n2)cc1 [Compound A, Phenyl-(5-thiophen-2-yl-1H-pyrazol-3-yl)-amine] | 10% | 4.59 | 4.58
c1ccc(Nc2cc(-c3csc4ccccc34)[nH]n2)cc1 [Compound B] | 21% | 5.21 | 5.51
